Results from patent US11492335B2, “Aryl or heteroaryl triazolone derivatives or salts thereof, or pharmaceutical compositions comprising the same” (YUHAN CORPORATION, priority 2018, dated 2022).
Structures can show the parent of a compound that is named as a salt.

Assays:
Assay type in all cases: biochemical
[1] = molecular target: T1, recombinant human MAO-A (monoamine oxidase-A) (Homo sapiens, UniProt P21397); assay: Activity on recombinant human MAO-A, Amplex Red method, 0.5 mM tyramine substrate; conditions: 0.5 mM tyramine substrate, read-out: Inhibitory Activity (IC50, nM) MAO-A
T1 construct: purchased Sigma-Aldrich
T1 sequence (P21397 1-527): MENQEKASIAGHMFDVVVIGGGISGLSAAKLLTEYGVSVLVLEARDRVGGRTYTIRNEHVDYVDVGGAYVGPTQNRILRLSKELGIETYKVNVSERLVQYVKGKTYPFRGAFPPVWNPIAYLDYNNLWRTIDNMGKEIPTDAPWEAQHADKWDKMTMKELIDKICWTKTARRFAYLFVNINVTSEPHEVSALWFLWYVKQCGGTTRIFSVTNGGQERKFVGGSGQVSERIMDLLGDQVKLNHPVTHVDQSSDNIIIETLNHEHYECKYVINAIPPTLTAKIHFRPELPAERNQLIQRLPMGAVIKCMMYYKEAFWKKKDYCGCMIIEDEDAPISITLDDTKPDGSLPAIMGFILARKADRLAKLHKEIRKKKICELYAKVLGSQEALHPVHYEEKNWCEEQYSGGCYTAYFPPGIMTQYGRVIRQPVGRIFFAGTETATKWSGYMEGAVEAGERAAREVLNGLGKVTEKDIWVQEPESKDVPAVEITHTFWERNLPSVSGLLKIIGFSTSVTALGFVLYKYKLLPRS
Summary of the method: (§1)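 First, serially diluted compounds were incubated with recombinant enzyme in 50 mM sodium phosphate, pH 7.4, for 30 min at 37° C. Next, Amplex Red (200 uM), HRP (1 U/mL) and tyramine (0.5 mM, MAO-A) or benzylamine (1 mM, MAO-B) were added. Then fluorescence was monitored over 1-2 h and IC50 fitted.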

[2] = molecular target: T2, recombinant human DAO (diamine oxidase) (Homo sapiens, UniProt P19801); assay: Activity on recombinant human DAO, Amplex Red method, 1 mM putrescine substrate; conditions: recombinant human DAO, 1 mM putrescine substrate; read-out: Inhibitory Activity (IC50, nM) DAO
T2 construct: purchased R&D systems
T2 sequence (P19801 20-751): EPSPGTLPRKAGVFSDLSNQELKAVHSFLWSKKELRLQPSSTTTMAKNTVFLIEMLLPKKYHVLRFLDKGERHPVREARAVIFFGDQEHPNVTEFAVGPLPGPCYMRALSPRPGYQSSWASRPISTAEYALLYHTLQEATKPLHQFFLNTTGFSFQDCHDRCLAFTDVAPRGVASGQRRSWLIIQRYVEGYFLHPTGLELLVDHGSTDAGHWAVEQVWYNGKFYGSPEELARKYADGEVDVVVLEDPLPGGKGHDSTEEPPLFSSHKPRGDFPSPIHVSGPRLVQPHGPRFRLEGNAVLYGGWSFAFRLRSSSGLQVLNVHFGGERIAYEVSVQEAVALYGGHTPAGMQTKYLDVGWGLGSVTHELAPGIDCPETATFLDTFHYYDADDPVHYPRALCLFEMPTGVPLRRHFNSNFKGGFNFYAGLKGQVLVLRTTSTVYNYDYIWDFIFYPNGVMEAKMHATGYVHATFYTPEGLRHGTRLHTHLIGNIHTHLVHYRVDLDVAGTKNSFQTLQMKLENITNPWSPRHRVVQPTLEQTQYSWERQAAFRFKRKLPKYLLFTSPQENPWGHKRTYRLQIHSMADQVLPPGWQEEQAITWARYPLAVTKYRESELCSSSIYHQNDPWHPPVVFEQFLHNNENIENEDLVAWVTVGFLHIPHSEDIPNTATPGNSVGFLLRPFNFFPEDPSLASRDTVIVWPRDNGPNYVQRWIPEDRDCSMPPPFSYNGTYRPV
Summary of the method: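 Inhibition of recombinant human DAO (diamine oxidase, R&D systems) was assessed with the Amplex Red Hydrogen Peroxide Assay Kit. Hydrogen peroxide produced from 1 mM putrescine was detected through an HRP-coupled reaction that converts Amplex Red into fluorescent resorufin, read at 544 nm excitation and 590 nm emission. IC50 values came from four-parameter logistic fits in GraphPad Prism.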

[3] = molecular target: T3, recombinant human MAO-B (monoamine oxidase-B) (Homo sapiens, UniProt P27338); assay: Activity on recombinant human MAO-B, Amplex Red method, 1 mM benzylamine substrate; conditions: 1 mM benzylamine substrate, read-out: Inhibitory Activity (IC50, nM) MAO-B
T3 construct: purchased Sigma-Aldrich
T3 sequence (P27338 1-520): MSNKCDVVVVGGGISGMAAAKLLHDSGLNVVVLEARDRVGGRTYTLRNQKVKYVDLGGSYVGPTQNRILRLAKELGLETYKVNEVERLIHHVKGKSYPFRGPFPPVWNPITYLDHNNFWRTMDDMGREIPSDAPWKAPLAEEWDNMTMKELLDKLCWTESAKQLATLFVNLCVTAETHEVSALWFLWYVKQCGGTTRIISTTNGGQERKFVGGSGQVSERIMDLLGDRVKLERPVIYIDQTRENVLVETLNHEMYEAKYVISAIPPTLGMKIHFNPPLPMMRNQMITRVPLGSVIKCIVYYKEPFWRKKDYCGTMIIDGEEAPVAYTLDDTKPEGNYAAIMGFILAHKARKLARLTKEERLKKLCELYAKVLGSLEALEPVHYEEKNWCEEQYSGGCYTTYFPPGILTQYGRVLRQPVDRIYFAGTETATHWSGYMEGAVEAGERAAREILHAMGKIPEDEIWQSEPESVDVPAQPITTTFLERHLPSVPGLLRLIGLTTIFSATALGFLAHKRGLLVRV
Summary of the method: as §1

[4] = molecular target: T4, recombinant human VAP-1 (Homo sapiens, UniProt Q16853); assay: Activity on recombinant human VAP-1, Amplex Red HRP-coupled hydrogen peroxide assay, benzylamine substrate; conditions: recombinant human VAP-1, benzylamine substrate; read-out: Inhibitory Activity (IC50, nM) human VAP-1
T4 construct: purchased R&D systems
T4 sequence (Q16853 1-763): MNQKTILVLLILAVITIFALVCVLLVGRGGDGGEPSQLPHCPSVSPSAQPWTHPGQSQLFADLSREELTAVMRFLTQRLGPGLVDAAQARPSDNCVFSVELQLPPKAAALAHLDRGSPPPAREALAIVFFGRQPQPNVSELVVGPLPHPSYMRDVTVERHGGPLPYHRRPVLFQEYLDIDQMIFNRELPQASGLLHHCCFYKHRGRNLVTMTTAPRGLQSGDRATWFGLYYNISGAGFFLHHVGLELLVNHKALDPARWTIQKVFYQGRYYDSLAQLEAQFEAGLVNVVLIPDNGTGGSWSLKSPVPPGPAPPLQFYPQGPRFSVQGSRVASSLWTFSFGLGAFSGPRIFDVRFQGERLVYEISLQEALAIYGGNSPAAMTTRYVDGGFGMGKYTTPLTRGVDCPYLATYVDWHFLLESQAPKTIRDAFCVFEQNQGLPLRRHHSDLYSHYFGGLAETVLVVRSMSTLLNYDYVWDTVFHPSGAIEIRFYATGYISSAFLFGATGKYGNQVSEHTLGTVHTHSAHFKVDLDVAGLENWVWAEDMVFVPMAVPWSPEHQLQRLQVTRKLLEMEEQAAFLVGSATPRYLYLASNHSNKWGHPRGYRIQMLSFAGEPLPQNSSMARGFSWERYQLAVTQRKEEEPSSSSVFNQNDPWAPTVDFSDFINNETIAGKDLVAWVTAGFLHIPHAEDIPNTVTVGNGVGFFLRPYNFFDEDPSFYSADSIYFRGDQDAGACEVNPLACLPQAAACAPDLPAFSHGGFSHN
Summary of the method: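 H2O2 generation from 1 mM benzylamine was coupled via 1 U/mL HRP to 200 uM Amplex Red; inhibitors, serially diluted 1:3 over 8 points with under 1% final DMSO, had been preincubated 30 min at 37 °C. IC50 from percentage drop in rate.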

SMILES	IC50 [1] [nM]	IC50 [2] [nM]	IC50 [3] [nM]	IC50 [4] [nM]
Cc1cc(-c2ccc3c(c2)NC(=O)C3)cnc1-n1cnn(C/C(=C/F)CN)c1=O [Example 151, 6-(6-{1-[(2E)-2-(aminomethyl)-3-fluoroprop-2-en-1-yl]-5-oxo-1,5-dihydro-4H-1,2,4-triazol-4-yl}-5-methylpyridin-3-yl)-1,3-dihydro-2H-indol-2-one]	> 10000	98	> 10000	0.52
Cc1cc(-c2ccc3nonc3c2)cnc1-n1cnn(C/C(=C/F)CN)c1=O [Example 152, 2-[(2E)-2-(aminomethyl)-3-fluoroprop-2-en-1-yl]-4-[5-(2,1,3-benzooxadiazol-5-yl)-3-methylpyridin-2-yl]-2,4-dihydro-3H-1,2,4-triazol-3-one hydrochloride]	7420	1300	314	0.5
Cc1cc(-c2ccc3cn[nH]c3c2)cnc1-n1cnn(C/C(=C/F)CN)c1=O [Example 153, 2-[(2E)-2-(aminomethyl)-3-fluoroprop-2-en-1-yl]-4-[5-(1H-indazol-6-yl)-3-methylpyridin-2-yl]-2,4-dihydro-3H-1,2,4-triazol-3-one]	96000	640	703	0.39
Cc1cc(-c2cc(C)c3c(c2)CCC(=O)N3)cnc1-n1cnn(C/C(=C/F)CN)c1=O [Example 154, 6-(6-{1-[(2E)-2-(aminomethyl)-3-fluoroprop-2-en-1-yl]-5-oxo-1,5-dihydro-4H-1,2,4-triazol-4-yl}-5-methylpyridin-3-yl)-8-methyl-3,4-dihydroquinolin-2(1H)-one hydrochloride]	> 100000	190	3000	0.3
Cc1cc(-c2ccc3c(c2)NC(=O)CO3)cnc1-n1cnn(C/C(=C/F)CN)c1=O [Example 155, 6-(6-{1-[(2E)-2-(aminomethyl)-3-fluoroprop-2-en-1-yl]-5-oxo-1,5-dihydro-4H-1,2,4-triazol-4-yl}-5-methylpyridin-3-yl)-2H-1,4-benzoxazin-3 (4H)-one hydrochloride]	16000	87	4400	0.3
Cc1cc(-c2ccc3c(c2)NC(=O)OC3)cnc1-n1cnn(C/C(=C/F)CN)c1=O [Example 156, 7-(6-{1-[(2E)-2-(aminomethyl)-3-fluoroprop-2-en-1-yl]-5-oxo-1,5-dihydro-4H-1,2,4-triazol-4-yl}-5-methylpyridin-3-yl)-1,4-dihydro-2H-3,1-benzoxazin-2-one hydrochloride]	> 100000	38	26000	0.3
Cc1cc(-n2cnn(C/C(=C/F)CN)c2=O)ncc1-c1ccc(-c2nc[nH]n2)cc1 [Example 157, 2-[(2E)-2-(aminomethyl)-3-fluoroprop-2-en-1-yl]-4-{4-methyl-5-[4-(1H-1,2,4-triazol-3-yl)phenyl]pyridin-2-yl}-2,4-dihydro-3H-1,2,4-triazol-3-one]	> 100000	< 100	3790	0.3
Cc1cc(-n2cnn(C/C(=C/F)CN)c2=O)ncc1-c1cccc(-c2nc[nH]n2)c1 [Example 158, 2-[(2E)-2-(aminomethyl)-3-fluoroprop-2-en-1-yl]-4-{4-methyl-5-[3-(1H-1,2,4-triazol-3-yl)phenyl]pyridin-2-yl}-2,4-dihydro-3H-1,2,4-triazol-3-one]	9600	< 100	1940	0.18
Cc1cc(-n2cnn(C/C(=C/F)CN)c2=O)ncc1-c1ccc2c(c1)OCO2 [Example 159, 2-[(2E)-2-(aminomethyl)-3-fluoroprop-2-en-1-yl]-4-[5-(1,3-benzodioxol-5-yl)-4-methylpyridin-2-yl]-2,4-dihydro-3H-1,2,4-triazol-3-one]	1510	1.8	74	0.21
Cc1cc(-n2cnn(C/C(=C/F)CN)c2=O)ncc1-c1ccc2cn[nH]c2c1 [Example 160, 2-[(2E)-2-(aminomethyl)-3-fluoroprop-2-en-1-yl]-4-[5-(1H-indazol-6-yl)-4-methylpyridin-2-yl]-2,4-dihydro-3H-1,2,4-triazol-3-one]	46200	< 100	137	0.37
Cc1cc(-n2cnn(C/C(=C/F)CN)c2=O)ncc1-c1ccc2sc(N)nc2c1 [Example 161, 4-[5-(2-amino-1,3-benzothiazol-5-yl)-4-methylpyridin-2-yl]-2-[(2E)-2-(aminomethyl)-3-fluoroprop-2-en-1-yl]-2,4-dihydro-3H-1,2,4-triazol-3-one hydrochloride]	6240	2	3140	6.5
NC/C(=C\F)Cn1ncn(-c2ncc(-c3ccc4c(c3)OCO4)cc2F)c1=O [Example 162, 2-[(2E)-2-(aminomethyl)-3-fluoroprop-2-en-1-yl]-4-[5-(1,3-benzodioxol-5-yl)-3-fluoropyridin-2-yl]-2,4-dihydro-3H-1,2,4-triazol-3-one hydrochloride]	3140	1.6	17	1.6
